Measurements as given in patent publication US8097759B2, “Inflammatory cytokine release inhibitor” (Institute of Medicinal Molecular Design, Inc., priority 2000, dated 2012).

System: NF-κB activation
Experiment: NF-κB activation reporter assay (pNFκB-Luc luciferase) under TNF-α stimulation
Format: cell-based, human
Conditions: Homo sapiens, HepG2 or HeLa cells, TNF-α 40 ng/ml, 4 hours, read-out: The rate of inhibitory activity against NF-κB activation (%); for inhibition at 1 µg/mL: Concentration of the agent: 1 μg/mL; for inhibition at 10 µg/mL: Concentration of the agent: 10 μg/mL
Description: Using a transfection reagent (Effectene; QIAGEN), the human hepatoma cell strain HepG2 or the human hysterocarcinoma cell strain HeLa was transfected with the firefly luciferase gene (Luc) contained plasmid (pNF κB-Luc Reporter Plasmid; […]) which contained oligonucleotide having five tandem copies of NF-κB binding sequences ([…]) on a upstream region of Luc, according to the QUAGEN's protocol and it was incuvated for 6-24 hours. After addition of TNF-α (40 ng/ml) with or without the test compound, the cells were incuvated for 4 hours, and intracellular luciferase activity was measured with PicaGene LT (TOYO INK MFG Co., Ltd.) and chemical luminescence measurement device ([…]luor Plus; TECAN). The inhibition ratio was measured as a ratio to the value of the luciferase activity without the test compound.

Row | SMILES | inhibition at 1 µg/mL [%] | inhibition at 10 µg/mL [%]
1 | CC(=O)Nc1cc(O)c(C(=O)Nc2cc(C(F)(F)F)cc(C(F)(F)F)c2)cc1Cl [Compound 97] | 69.9 | 96
2 | Cc1cnc(NC(=O)c2cc(Br)ccc2O)s1 [Compound 185] | -1.5 | 69.7
3 | Cc1ccc(O)c(C(=O)Nc2cc(C(F)(F)F)cc(C(F)(F)F)c2)c1 [Compound 55] | 95.8 | 99.4
4 | O=C(Nc1cc(Cl)cc(Cl)c1)c1cc(Br)cc(Br)c1O [Compound 150] | 91.4 | 95.1
5 | CN(C(=O)c1cc(Cl)ccc1O)c1cc(C(F)(F)F)cc(C(F)(F)F)c1 [Compound 16, N-[3,5-Bis(trifluoromethyl)phenyl]-5-chloro-2-hydroxy-N-methylbenzamide] | 36.4 | 91.6
6 | O=C(Nc1cc(C(F)(F)F)cc(C(F)(F)F)c1)c1cc(Br)ccc1O [Compound 51] | 94.9 | 98.6
7 | Oc1ccc(Br)cc1CNc1cc(Cl)cc(Cl)c1 [Compound 14, N-[(5-Bromo-2-hydroxyphenyl)methyl]-3,5-dichloroaniline] | 21.7 | 98.9
8 | Cc1ccc(C(F)(F)F)cc1NC(=O)c1cc(Cl)ccc1O [Compound 120] | 93.8 | 97.9
9 | CCOC(=O)c1c(NC(=O)c2cc(Cl)ccc2O)sc2c1CCCC2 [Compound 35, 2-(5-Chloro-2-hydroxybenzoyl)amino-4,5,6,7-tetrahydrobenzo[b]-thiophene-3-carboxylic acid ethyl ester] | 88.2 | 85.4
10 | CC(O)c1ccc(O)c(C(=O)Nc2cc(C(F)(F)F)cc(C(F)(F)F)c2)c1 (stereo not shown) [Compound 57] | 76.8 | 96
11 | O=C(Nc1nc(-c2ccccc2)c(-c2ccccc2)s1)c1cc(Br)ccc1O [Compound 204] | -5.3 | 67
12 | O=C(Nc1cc(C(F)(F)F)cc(C(F)(F)F)c1)c1cc(C=Cc2ccccc2)ccc1O [Compound 63] | 95.5 | 96.9
13 | C=C(c1ccc(Cl)cc1)c1cc(Cl)ccc1O [Compound 9, 4-Chloro-2-[(4-chlorophenyl)ethen-2-yl]phenol] | 21.9 | 99.2
14 | CCOC(=O)c1sc(NC(=O)c2cc(Br)ccc2O)nc1C(F)(F)F [Compound 216] | 87.6 | 96.5
15 | O=C(Nc1nc(C(F)(F)F)c(Br)s1)c1cc(Br)ccc1O [Compound 182] | 85.3 | 94.4
16 | Cc1cc(C)cc(NC(=O)c2cc(Br)ccc2O)c1 [Compound 161] | 86.3 | 92.6
17 | O=C(Nc1cc(C(F)(F)F)cc(C(F)(F)F)c1)c1cc(-c2ccccc2)ccc1O [Compound 67] | 91.8 | 96.8
18 | O=C(Nc1cc(C(F)(F)F)cc(C(F)(F)F)c1)c1ccc2ccccc2c1O [Compound 21, N-[3,5-Bis(trifluoromethyl)phenyl]-1-hydroxy-2-naphthamide] | 89.6 | 95
19 | COc1ccc(-c2ccccc2)cc1NC(=O)c1cc(Cl)ccc1O [Compound 166] | 82.4 | 97.9
20 | O=C(Nc1cccc(Cl)c1)c1cc(Br)ccc1O [Compound 140] | 94.2 | 96.7
21 | O=C(NN=Cc1ccc(O)cc1O)c1cc(Cl)ccc1O [Compound 15, 5-Chloro-2-hydroxybenzoic acid (2,4-dihydroxybenzylidene)hydrazide] | 15.2 | 70.4
22 | COc1ccc(C(=O)C=Cc2ccccc2OC)c(O)c1 [Compound 6, 1-(2-Hydroxy-4-methoxyphenyl)-3-(2-methoxyphenyl)propen-1-one] | 27.8 | 61.9
23 | O=C(Nc1cc(Cl)cc(Cl)c1)c1cc(Br)ccc1O [Compound 148] | 77.1 | 92.8
